Here are results for 5 molecules from patent US12180228B2 (priority 2019, dated 2024).

The subject of data set [1] is K-562 cell lines (chronic myelogenous leukemia (CML)). Description: cells. The data set is classed as cell-based. To be noted: Homo sapiens, K562; 72 hours, CellTiter-Glo. The procedure: (§1) Cells were grown in RPMI-1640+10% FBS+Pen/Strep and all are suspension cell lines. Each were plated at 250 cells per well in 50 μL of media in a 384 well plate and 50 nL of compounds was added via pin-tool (same as our usual procedure). Compounds were tested at 20 μM starting assay concentration in 20-pt, 2-fold dose in duplicate on the same assay plate. Cells were incubated with compound for 72 hours and viability was read out with CellTiter-Glo.

Data set [2] has as its system Jurkat cell lines (acute T cell leukemia). Description: cells. The data set is classed as cell-based. To be noted: Homo sapiens, 72 hours, CellTiter-Glo. On the procedure:
as §1
For orientation: In ATP-based viability assays light output follows the ATP content of the culture.

The subject of data set [3] is Toledo cell lines (diffuse large cell lymphoma; non-Hodgkin's B cell lymphoma). Description: cells. Format: cell-based. Particulars: Homo sapiens, 72 hours, CellTiter-Glo. The procedure: as §1
For data set [4], the system named is HeLa (cervical carcinoma). To be noted: for IC50: read-out: Cytotoxicity IC50, HeLa, 72 h of compound treatment, Cell Titer-Glo (ATP levels), error is standard deviation of the mean, n ≥ 2. On the procedure:
(§2) Cells were grown in media supplemented with fetal bovine serum (FBS) and antibiotics (100 μg/mL penicillin and 100 U/mL streptomycin).
(§3) Cells were plated at 250 cells/well into duplicate assay plates in 50 μL media into 384-well white, opaque, tissue-culture treated plates and allowed to adhere overnight at 37° C./5% CO2. Compounds were solubilized in DMSO as 1000× stocks and […] was pin-transferred to cells (V&P pin tool mounted on Tecan Freedom Evo MCA96). Compounds were tested in 10-pt, 2-fold dilution with concentrations tested between 1 nM-20 μM for most compounds, except where indicated. DMSO (32 wells of 384-wells) was used as vehicle control. After 72 hours of incubation at 37° C./5% CO2, 10 μL Cell Titer-Glo (Promega) was added to each well and plates were incubated at room temperature for 10 minutes before the luminescence was read on a Tecan M1000 plate reader. Cell Titer-Glo measures ATP levels of cells as a surrogate for cell viability. All compound-treated wells was normalized to the DMSO control averages and expressed as a % of DMSO viability. IC50 values were determined from the dose curves using Spotfire (Perkin Elmer).

Data set [5] concerns DU-145 (prostate carcinoma). Particulars: for IC50: read-out: Cytotoxicity IC50, DU-145, 72 h of compound treatment, Cell Titer-Glo (ATP levels), error is standard deviation of the mean, n ≥ 2. The procedure:
as §2, §3

Data set [6] relates to A549 (alveolar adenocarcinoma). To be noted: for IC50: read-out: Cytotoxicity IC50, A549, 72 h of compound treatment, Cell Titer-Glo (ATP levels), error is standard deviation of the mean, n ≥ 2. On the procedure: as §2, §3
The nature of data set [7]: Chemical stability of epidisulfides, in situ 1H NMR monitoring. The data set is classed as physicochemical. To be noted: triethylamine, 16 hours in deuteroacetonitrile. The procedure: In the absence of base, 98% of epidisulfide (+)-8 remained after 20 hours in deuterochloroform.
Monitoring in situ by ^1H NMR spectroscopy, 99% remaining starting material in the presence of triethylamine after 16 hours in deuteroacetonitrile was observed.

For data set [8], the system named is five human cancer cell lines (HeLa, A549, MCF7, HCT116, DU-145). To be noted: for cytotoxic activity relative to parent ETP (in words): same five cell lines. On the procedure:
Cells were grown in media supplemented with fetal bovine serum (FBS) and antibiotics (100 μg/mL penicillin and 100 U/mL streptomycin). Specifically, experiments were performed using the following cell lines and media compositions: HeLa (cervical adenocarcimona) and A549 (lung carcinoma) were grown in RPMI-1640+10% FBS; HCT-116 (colorectal carcinoma) was grown in DMEM+10% FBS; DU-145 (prostate carcinoma) and MCF7 (breast adenocarcinoma) were grown in EMEM+10% FBS. Cells were incubated at 37° C. in a 5% CO2, 95% humidity atmosphere.
as §3
To evaluate the model and functionalized ETP probes as anticancer agents, fifteen derivatives were tested in culture against a panel of five human cancer cell lines (Table 1).

Data set [9] concerns MCF7 (breast adenocarcinoma). To be noted: read-out: Cytotoxicity IC50, MCF7; 72 h of compound treatment, Cell Titer-Glo (ATP levels); error is standard deviation of the mean, n ≥ 2. On the procedure: as §2, §3
The test system of data set [10] is HCT116 (colorectal carcinoma). To be noted: read-out: Cytotoxicity IC50, HCT116; 72 h of compound treatment, Cell Titer-Glo (ATP levels); error is standard deviation of the mean, n ≥ 2. The procedure:
as §2, §3

For data set [11] the following is noted: D2O and CD3CN, addition of glutathione; minutes with base or days without. On the procedure: The first study involved thiol-disulfide exchange of ETPs in organic solvents using a surrogate thiol, and then transitioned to more biologically informative aqueous conditions involving glutathione (Scheme 9).
To investigate this, aliquots of the reaction were diluted starting with epidisulfide (+)-42 (“from ETP”) in CDCl3 to analyze the composition versus an internal standard over a period of 100 h.

The structures appear in SMILES notation.

As to `CN1C(=O)[C@@]23C[C@]4(c5ccc(OCCCN=[N+]=[N-])cc5)c5ccccc5N(S(=O)(=O)c5ccccc5)[C@@H]4N2C(=O)[C@]1(C)SS3` [(+)-9d, Epidithiodiketopiperazine Azide], the IC50 (in general, the concentration that inhibits the measured activity by half) in data set [1] came to 1280 nM; in data set [2], 419 nM; in [3], 1810 nM. Besides, in [4], the “fold decrease in activity compared to model ETP (+)-42, HeLa” value stood at 4.3 fold. The “fold decrease in activity compared to model ETP (+)-42, DU-145” value in data set [5] is recorded as 8.6 fold. Further, the “fold decrease in activity compared to model ETP (+)-42, A549” value in data set [6] turned out to be 2.7 fold.

With `COc1ccc([C@]23C[C@@]45SS[C@@](C)(C(=O)N4[C@H]2N(S(=O)(=O)c2ccccc2)c2ccccc23)N(C)C5=O)cc1` [(+)-42, Epidithiodiketopiperazine], the remaining starting material in data set [7] stood at 99%. Also, the IC50 in data set [8] (read-out: activity (IC50 range) against the five cell lines, range over HeLa, A549, MCF7, HCT116, DU-145) was 32 to 374 nM; in data set [4] it was 32 ± 37 nM; in data set [9], 81 ± 64 nM; in [5], 36 ± 43 nM; in data set [6], 92 ± 87 nM; in data set [10] it was 374 ± 83 nM.

As for `COc1ccc([C@]23C[C@]4(SSCc5ccc(F)cc5)C(=O)N(C)[C@@](C)(SSCc5ccc(F)cc5)C(=O)N4[C@H]2N(S(=O)(=O)c2ccccc2)c2ccccc23)cc1` [(+)-45b], in data set [8], the “cytotoxic activity relative to parent ETP (in words)” value is recorded as “approximately the same activities”.

`COc1ccc([C@]23C[C@]4(SSCc5ccc(F)cc5)C(=O)N(C)[C@@H](SSCc5ccc(F)cc5)C(=O)N4[C@H]2N(S(=O)(=O)c2ccccc2)c2ccccc23)cc1` [(−)-45a]: the “cytotoxic activity relative to parent ETP (in words)” value in data set [8] was “approximately the same activities”.

`COc1ccc([C@]23C[C@]4(SSC[C@H](NC(=O)CC[C@H](N)C(=O)O)C(=O)NCC(=O)O)C(=O)N(C)[C@@](C)(SSC[C@H](NC(=O)CC[C@H](N)C(=O)O)C(=O)NCC(=O)O)C(=O)N4[C@H]2N(S(=O)(=O)c2ccccc2)c2ccccc23)cc1` [Compound 46, Bis(L-glutathione)disulfide]: the “cytotoxic activity relative to parent ETP (in words)” value in data set [8] is listed as “significantly less active”. In addition, the IC50 came out at 508 ± 75 nM in [4]; 500 ± 152 nM in data set [9]; 580 ± 216 nM in data set [5]; 910 ± 324 nM in data set [6]; 1100 ± 540 nM in data set [10]. Besides, the “reversion of bisdisulfide to ETP (+)-42 (in words)” value in [11] is on record as “quantitative reversion”.
